# Reference: publication PMC6348924, “Detection of Active Caspase-3 in Mouse Models of Stroke and Alzheimer's Disease with a Novel Dual Positron Emission Tomography/Fluorescent Tracer [^68Ga]Ga-TC3-OGDOTA” (Contrast Media & Molecular Imaging, 2019)
# Tested on: primary cortical neuronal cultures treated with CPT
# Experiment: Ga-TC3-OGDOTA accumulation in CPT toxicity assay
# Format: cell-based, mouse
# Details: 10 μM CPT, 24 h
# Method: For the in vitro cell culture studies, primary hippocampal and cortical neuronal cultures were prepared from E17 mouse embryos as described previously and cultured in regular neuronal medium (RNM) containing 1x B27, 0.5 mM glutamine, 0.25% glucose in Neurobasal medium (Invitrogen).
# Three different conditions known to induce neuronal apoptosis were used to study Ga-TC3-OGDOTA uptake in cell culture: camptothecin (CPT) toxicity, OGD, and AβO toxicity. […] For the CPT toxicity assay, cortical neurons were treated with 0 (control) or 10 μM CPT (Sigma-Aldrich) for 24 h at normal conditions (5% CO2, 37°C). After that the cultures were washed with RNM and incubated with various concentrations of Ga-TC3-OGDOTA for 7 h, followed by either direct live imaging or fixation with 4% paraformaldehyde (PFA) in PBS for staining. […]
# For coimaging of Hoechst 33342 (Hoechst), 4′,6′-Diamidino-2-Phenylindole (DAPI), Oregon Green and CC3, fixed cultures were immunostained with anti-CC3 antibody (1 : 500, Cell Signaling, cat#9661) followed by antirabbit secondary antibody and DAPI or Hoechst. […] Cells positive for tracer, CC3, and total number of cells were counted using the ImageJ (NIH, Bethesda, MD) Cell Counter plugin and their ratio was compared between the treatments.
compound,measurement,value
"CC[C@@]1(O)C(=O)OCc2c1cc1n(c2=O)Cc2cc3ccccc3nc2-1 [CPT, camptothecin]",effect on number of apoptotic neurons in the culture,elevated
